Source: US20130150335A1, “PACLITAXEL/STEROIDAL COMPLEX” (Institute of Mataria Medica, Chinese Academy of Medical …, priority 2009, published 2013)
Values after ≈ are worked out from the molar mass of the structure shown. Read-outs that look alike come from different tables or passages of the source.

Assays:
[1] = Solubility of paclitaxel/lipid complex in oil (soybean oil, MCO, mixed oil); assay type: physicochemical; details: for solubility at 1 h: saturated solution
Procedure: Take 4 g of paclitaxel, add cholesterol, 7-dehydrocholesterol and ergosterol respectively in accordance with the amount ratio as stated in Table 2 below, move to a rotary evaporator together, dissolve with 500 ml of acetone each, mix at 45° C. for 1 hour then remove the solvent by the rotary evaporation method, vacuum dry at 65° C. for 15 hours. Take a quantity of each complex formed, add 20 g of soybean oil for injection used, heat in water bath for 1 hour and shake, obtain saturated solutions.
Using acetone as the solvent, the molar ratio of paclitaxel to cholesterol being 1:1, the reaction temperature at 35° C., the reaction time being 0.5 h, the effect of the paclitaxel concentration (16.0, 8.0, 4.0, 2.0, 1.0 and 0.5 mg/ml) on the complex preparation was investigated.
Filter the solution, take a quantity of the successive filtrate, dilute with absolute ethanol, carry out an HPLC analysis, calculate the solubility of complex in oil; take a quantity of paclitaxel, repeat the procedure.

[2] = Solubility of paclitaxel cholesterol complex in n-octanol; assay type: physicochemical; details: organic solvent or mixture, thermodynamic from solid, 25° C., saturated solution, read-out: drug solubility in n-octanol
Procedure: Take 5 ml of the solution, filter by 0.45 μm of membrane, take an amount of the successive filtrate, dilute with absolute ethanol, carry out the ultraviolet spectrophotometry method, calculate the apparent solubility of the physical mixture and cholesterol in n-octanol, compared the results with paclitaxel.

drug solubility in vegetable oil: Mixed oil ([1]; Table 4, soybean oil and MEDIUM CHAIN OIL (volume ratio of 1:1), 60° C.): 1360 µg/mL
solubility at 1 h ([1]; medium chain oil (MCO), oil or lipid, thermodynamic from solid, Table 4, MEDIUM CHAIN OIL, 60° C., read-out: drug solubility in vegetable oil: MCO): 2370 µg/mL (≈ 2780 µM)
solubility at 1 h ([1]; oil or lipid, thermodynamic from solid, Table 4, soybean oil for injection, 60° C., read-out: drug solubility in vegetable oil: Soybean oil): 270 µg/mL (≈ 316 µM)
solubility at 1 h ([1]; soybean oil for injection, oil or lipid, thermodynamic from solid, Table 2, effect of paclitaxel/steroid amount ratio, HPLC, read-out: Solubility in soybean oil): 270 µg/mL
solubility ([1]; soybean oil, oil or lipid, thermodynamic from solid, Table 1, complexes per CN200810168213.X, calculated as paclitaxel): 270 µg/mL (≈ 316 µM)
solubility at 24 h [2]: 8860 µg/mL (≈ 10400 µM)
SMILES: CC(=O)O[C@H]1C(=O)[C@@]2(C)[C@H]([C@H](OC(=O)c3ccccc3)[C@]3(O)C[C@H](OC(=O)[C@H](O)[C@@H](NC(=O)c4ccccc4)c4ccccc4)C(C)=C1C3(C)C)[C@]1(OC(C)=O)CO[C@@H]1C[C@@H]2O [Paclitaxel]
